Source: patent US12492225B2, “Melanocyte-regulating peptides” (IDP DISCOVERY PHARMA, S.L., priority 2019, dated 2025)

System: B16-F10 melanoma cells
Experiment: Measurement of melanin content in B16-F10 melanoma cells
Type: cell-based, mouse
Conditions: KA at 1 uM; FIG. 1
Procedure: B16-F10 melanoma cells were seeded into 25 cm^2 cell culture flask and incubated for 24 h. Then, 0.1 μM α-MSH was added and cells were treated with the aforementioned peptides at doses lower than their respective IC50 for a total of 48 h incubation. After washing twice with phosphate buffered saline, cells were dissolved in 1 mL of 1N NaOH. For measurement of melanin content, 100 μL aliquots of solution were then placed in 96-well plates and the absorbance was measured at 450 nm using microplate reader. Anti-melanin activity was expressed by the percentage of melanin to that of untreated melanoma cells. As positive control Kojic Acid (KA) was used at different concentrations (0.1, 1 and 10 μM).

O=c1cc(CO)occ1O [KA, kojic acid]
reduction of melanin compared with the peptides of the invention (F22) at the same concentration: the reduction was substantially lower
